Where two headings read alike, the source gives them in different places.
Legend:
[1] = molecular target: T1, fatty acid synthetase (Mus musculus, UniProt P19096); assay: Enzymatic studies in vitro: fatty acid synthetase; type: biochemical
T1 construct: from tissue

[2] = tested on: hyperlipidemic induced mice; assay: Hypolipidemic activity in diet-induced hyperlipidemic mice; type: in vivo; details: 8 mg./kg./day i.p., 12 days
Method: The same compound was tested in mice that had been placed on a commercial diet to produce a "hyperlipidemic" state. […] Serum cholesterol and triglyceride levels were measured at that time. A similar lowering of cholesterol and triglyceride levels in the hyperlipidemic-induced mice was observed.

[3] = tested on: male CF1 mice; assay: Hypolipidemic activity in CF1 mice, intraperitoneal dosing (serum cholesterol and triglyceride); type: in vivo; details: for response vs control in vivo at 20 mg/kg: Mus musculus, ip, Table I, 20 mg./kg./day i.p., male CF1 mice; for Serum Cholesterol Day 9 (X ± SD) / Serum Cholesterol Day 16 (X ± SD) / Serum Triglyceride Day 16 (X ± SD) / Serum Triglyceride Day 9 (X ± SD): Table III, CF1 mice, N = 6
Method: For determining hypolipidemic activity, the compounds were suspended in an aqueous 1% carboxymethylcellulose solution and tested at 5 or 20 mg./kg./day administered intraperitoneally to male CF1 mice (~25 g.). On days 9 and 16 blood was collected by tail vein bleeding and the serum separated by centrifugation for three minutes. Serum cholesterol levels were determined by a modified Liebermann-Burchard reaction. Serum triglyceride levels were also determined at 16 days using a Fisher-Hycel Triglyceride Test Kit.
The test was repeated at a dosage of 8 mg./kg./day.
N-n-Octadecyl-N,N-dimethylamine borane was suspended in an aqueous 1% carboxymethylcellulose solution, homogenized, and administered to CF1 male mice (~25 g.) intraperitoneally for 16 days or Sprague Dawley male rats (~350 g.) orally by an intubation needle for 14 days. On days 9 and 14 or 16, blood was obtained by tail vein bleeding and the serum separated by centrifugation for 3 minutes. The serum cholesterol levels were determined by a modification of the Liebermann-Burchard reaction. Serum was also collected on day 14 or 16 and the triglyceride content was determined by a Fisher-Hycel Triglyceride Test Kit.

[4] = tested on: Actyl CoA carboxylase; assay: Enzymatic studies in vitro: acetyl CoA carboxylase; type: biochemical
[5] = tested on: sn-glycerol-3 phosphate acyl transferase; assay: Enzymatic studies in vitro: sn-glycerol-3 phosphate acyl transferase; type: biochemical
[6] = tested on: liver mitochondrial citrate exchange; assay: Enzymatic studies in vitro: liver mitochondrial citrate exchange; type: biochemical; details: at all concentrations tested
[7] = molecular target: T2, ATP dependent citrate lyase (Mus musculus, UniProt Q91V92); assay: Enzyme activity after in vivo dosing: ATP dependent citrate lyase; details: 16 mg/kg/day
T2 construct: from tissue
T2 sequence (Q91V92 1-1091): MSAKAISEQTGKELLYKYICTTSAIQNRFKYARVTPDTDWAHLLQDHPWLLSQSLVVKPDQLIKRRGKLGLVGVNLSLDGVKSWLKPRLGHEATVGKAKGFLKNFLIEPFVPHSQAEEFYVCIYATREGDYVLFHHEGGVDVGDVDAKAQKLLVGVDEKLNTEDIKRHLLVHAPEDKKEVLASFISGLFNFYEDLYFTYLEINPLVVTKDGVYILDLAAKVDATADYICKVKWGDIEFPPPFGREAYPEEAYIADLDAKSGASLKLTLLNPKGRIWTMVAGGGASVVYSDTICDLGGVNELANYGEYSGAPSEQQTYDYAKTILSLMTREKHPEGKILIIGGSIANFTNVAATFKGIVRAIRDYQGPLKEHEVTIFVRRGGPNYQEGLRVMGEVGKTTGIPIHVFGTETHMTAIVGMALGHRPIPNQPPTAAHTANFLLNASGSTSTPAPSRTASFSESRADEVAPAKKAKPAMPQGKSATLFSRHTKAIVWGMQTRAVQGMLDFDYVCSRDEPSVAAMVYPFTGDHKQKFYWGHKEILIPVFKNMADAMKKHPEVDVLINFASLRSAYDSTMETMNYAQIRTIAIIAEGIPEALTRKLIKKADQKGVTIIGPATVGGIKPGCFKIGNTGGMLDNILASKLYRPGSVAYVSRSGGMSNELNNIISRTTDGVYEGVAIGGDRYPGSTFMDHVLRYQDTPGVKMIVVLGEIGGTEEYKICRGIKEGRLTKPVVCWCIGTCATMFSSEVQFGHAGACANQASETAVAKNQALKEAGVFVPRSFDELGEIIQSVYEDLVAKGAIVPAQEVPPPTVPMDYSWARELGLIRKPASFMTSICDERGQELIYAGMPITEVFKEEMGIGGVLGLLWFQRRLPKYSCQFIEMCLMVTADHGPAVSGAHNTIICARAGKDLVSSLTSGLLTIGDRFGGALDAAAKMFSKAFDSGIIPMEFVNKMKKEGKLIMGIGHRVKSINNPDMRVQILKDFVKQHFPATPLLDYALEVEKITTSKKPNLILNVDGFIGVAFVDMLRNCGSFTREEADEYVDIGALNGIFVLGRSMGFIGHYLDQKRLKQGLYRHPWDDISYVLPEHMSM

[8] = tested on: phosphatidate phosphohydrolase; assay: Enzymatic studies in vitro: phosphatidate phosphohydrolase; type: biochemical; details: 200 μM
[9] = molecular target: T3, acetyl CoA synthetase (Mus musculus, UniProt Q9QXG4); assay: Enzyme activity after in vivo dosing: acetyl CoA synthetase; details: 16 mg/kg/day
T3 construct: from tissue

[10] = tested on: phosphatidate phosphohydrolase; assay: Enzyme activity after in vivo dosing: phosphatidate phosphohydrolase; details: 16 mg/kg/day
[11] = tested on: sn-Glycerol-3-phosphate acyl transferase; assay: Enzyme activity after in vivo dosing: sn-glycerol-3-phosphate acyl transferase; details: 16 mg/kg/day
[12] = molecular target: T4, Cholesterol 7α hydrolase (Mus musculus, UniProt Q64505); assay: Enzymatic studies in vitro: cholesterol 7α hydrolase; type: biochemical
T4 construct: from tissue; host or cells: liver (inferred; the enzyme is liver-specific)

[13] = tested on: male CF1 mice; assay: Hypolipidemic activity in CF1 mice, intraperitoneal dosing (serum cholesterol and triglyceride); type: in vivo; details: Table III, 4 mg/kg/day i.p., N = 6
[14] = molecular target: T2, ATP dependent citrate lyase; assay: Enzymatic studies in vitro: ATP dependent citrate lyase; type: biochemical; details: at all concentrations tested
[15] = CF1 male mice, 8 mg/kg/day I.P.

T3 sequence (Q9QXG4 whole entry): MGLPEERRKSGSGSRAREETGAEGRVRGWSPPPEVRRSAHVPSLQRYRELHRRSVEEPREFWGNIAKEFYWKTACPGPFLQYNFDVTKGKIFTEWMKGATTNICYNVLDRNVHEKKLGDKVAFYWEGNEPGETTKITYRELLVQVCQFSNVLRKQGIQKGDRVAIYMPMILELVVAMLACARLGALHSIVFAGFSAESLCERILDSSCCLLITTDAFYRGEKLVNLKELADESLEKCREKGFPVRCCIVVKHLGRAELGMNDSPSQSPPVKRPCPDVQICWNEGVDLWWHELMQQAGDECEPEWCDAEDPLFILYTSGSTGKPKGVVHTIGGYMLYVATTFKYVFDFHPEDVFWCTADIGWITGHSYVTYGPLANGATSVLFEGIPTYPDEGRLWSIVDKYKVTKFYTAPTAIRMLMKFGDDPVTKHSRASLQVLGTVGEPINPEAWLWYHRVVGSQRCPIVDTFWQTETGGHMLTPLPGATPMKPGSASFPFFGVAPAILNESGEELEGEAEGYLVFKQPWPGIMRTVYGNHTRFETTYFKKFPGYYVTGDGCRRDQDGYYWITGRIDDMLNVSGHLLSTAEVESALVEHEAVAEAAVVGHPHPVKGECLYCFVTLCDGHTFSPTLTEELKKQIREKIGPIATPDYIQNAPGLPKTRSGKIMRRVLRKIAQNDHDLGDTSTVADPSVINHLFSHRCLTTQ
T1 sequence (P19096 whole entry): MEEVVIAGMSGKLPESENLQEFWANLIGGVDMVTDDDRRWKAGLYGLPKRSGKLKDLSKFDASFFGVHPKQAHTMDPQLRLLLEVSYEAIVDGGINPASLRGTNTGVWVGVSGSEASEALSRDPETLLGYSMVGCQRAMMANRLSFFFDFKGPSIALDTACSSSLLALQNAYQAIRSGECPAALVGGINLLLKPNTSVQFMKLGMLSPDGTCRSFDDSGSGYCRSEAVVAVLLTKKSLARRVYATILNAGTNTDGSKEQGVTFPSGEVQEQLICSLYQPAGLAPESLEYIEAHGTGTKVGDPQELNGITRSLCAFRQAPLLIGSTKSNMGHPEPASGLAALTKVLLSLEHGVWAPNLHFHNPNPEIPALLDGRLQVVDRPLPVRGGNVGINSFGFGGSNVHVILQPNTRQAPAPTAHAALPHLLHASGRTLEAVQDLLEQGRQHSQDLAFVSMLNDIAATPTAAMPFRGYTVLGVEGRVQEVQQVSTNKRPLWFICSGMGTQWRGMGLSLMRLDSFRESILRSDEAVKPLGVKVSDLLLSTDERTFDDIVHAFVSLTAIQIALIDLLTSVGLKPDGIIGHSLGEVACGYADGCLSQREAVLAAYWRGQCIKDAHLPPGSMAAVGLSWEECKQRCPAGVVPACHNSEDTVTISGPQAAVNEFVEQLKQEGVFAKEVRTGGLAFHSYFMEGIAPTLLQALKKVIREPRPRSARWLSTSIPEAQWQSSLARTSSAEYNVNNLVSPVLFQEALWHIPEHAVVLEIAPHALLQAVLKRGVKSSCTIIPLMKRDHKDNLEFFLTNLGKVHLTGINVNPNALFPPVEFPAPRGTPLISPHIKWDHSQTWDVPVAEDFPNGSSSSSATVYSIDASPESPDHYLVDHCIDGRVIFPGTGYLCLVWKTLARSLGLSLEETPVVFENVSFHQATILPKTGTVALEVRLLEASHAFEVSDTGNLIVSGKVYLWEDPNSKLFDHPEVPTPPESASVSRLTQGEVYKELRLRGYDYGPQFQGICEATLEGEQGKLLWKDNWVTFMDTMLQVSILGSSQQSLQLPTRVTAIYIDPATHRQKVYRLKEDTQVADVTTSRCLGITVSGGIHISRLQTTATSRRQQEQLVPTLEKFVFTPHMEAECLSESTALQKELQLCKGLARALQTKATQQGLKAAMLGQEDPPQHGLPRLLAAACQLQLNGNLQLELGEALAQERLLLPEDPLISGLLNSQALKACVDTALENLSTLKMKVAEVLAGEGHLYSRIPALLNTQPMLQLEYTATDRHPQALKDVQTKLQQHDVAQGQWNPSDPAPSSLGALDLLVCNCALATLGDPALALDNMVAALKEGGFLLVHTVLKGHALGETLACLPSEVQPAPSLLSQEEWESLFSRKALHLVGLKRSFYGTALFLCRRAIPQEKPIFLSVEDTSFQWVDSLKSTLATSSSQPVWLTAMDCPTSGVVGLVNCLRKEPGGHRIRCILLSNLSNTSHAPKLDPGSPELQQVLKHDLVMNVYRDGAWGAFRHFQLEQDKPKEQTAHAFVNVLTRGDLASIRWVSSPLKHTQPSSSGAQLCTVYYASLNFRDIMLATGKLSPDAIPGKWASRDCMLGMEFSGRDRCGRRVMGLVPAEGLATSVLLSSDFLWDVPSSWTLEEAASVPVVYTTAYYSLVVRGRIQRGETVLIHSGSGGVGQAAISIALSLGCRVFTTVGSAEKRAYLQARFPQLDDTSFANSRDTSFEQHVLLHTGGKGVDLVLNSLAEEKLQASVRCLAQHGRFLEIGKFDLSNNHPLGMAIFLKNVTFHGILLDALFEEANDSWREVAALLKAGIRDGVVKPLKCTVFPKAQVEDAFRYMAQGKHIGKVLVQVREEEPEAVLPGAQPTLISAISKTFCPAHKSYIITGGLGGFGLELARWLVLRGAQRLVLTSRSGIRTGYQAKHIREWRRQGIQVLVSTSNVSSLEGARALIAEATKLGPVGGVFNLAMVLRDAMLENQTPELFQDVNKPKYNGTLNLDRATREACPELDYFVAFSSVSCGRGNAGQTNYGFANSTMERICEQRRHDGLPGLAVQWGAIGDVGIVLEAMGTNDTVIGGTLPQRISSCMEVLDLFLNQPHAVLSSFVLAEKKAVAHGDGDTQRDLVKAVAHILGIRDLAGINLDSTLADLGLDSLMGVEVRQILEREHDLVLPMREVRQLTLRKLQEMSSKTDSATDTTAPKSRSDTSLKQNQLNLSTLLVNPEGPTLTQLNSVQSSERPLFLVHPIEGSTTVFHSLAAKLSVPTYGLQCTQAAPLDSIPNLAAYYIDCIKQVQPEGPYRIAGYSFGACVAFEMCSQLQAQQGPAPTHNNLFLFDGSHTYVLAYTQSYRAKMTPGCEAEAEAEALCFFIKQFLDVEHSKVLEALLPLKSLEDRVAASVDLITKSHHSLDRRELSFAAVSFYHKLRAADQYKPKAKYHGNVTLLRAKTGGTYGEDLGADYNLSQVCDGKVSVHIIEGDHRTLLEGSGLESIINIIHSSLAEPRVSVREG
T4 sequence (Q64505 whole entry): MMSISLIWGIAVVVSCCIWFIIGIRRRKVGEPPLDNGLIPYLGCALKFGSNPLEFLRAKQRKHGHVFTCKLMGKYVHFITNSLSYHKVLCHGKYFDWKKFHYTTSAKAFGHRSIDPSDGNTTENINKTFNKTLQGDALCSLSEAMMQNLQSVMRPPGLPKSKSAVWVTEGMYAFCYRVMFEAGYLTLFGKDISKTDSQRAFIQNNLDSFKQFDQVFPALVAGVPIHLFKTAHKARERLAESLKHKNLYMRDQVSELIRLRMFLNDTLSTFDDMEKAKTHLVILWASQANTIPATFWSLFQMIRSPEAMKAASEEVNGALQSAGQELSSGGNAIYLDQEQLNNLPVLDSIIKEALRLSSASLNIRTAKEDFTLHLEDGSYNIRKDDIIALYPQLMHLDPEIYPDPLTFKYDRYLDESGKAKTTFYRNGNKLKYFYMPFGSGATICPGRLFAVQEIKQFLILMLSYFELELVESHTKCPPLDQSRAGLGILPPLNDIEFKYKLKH

## [BH3-][N+](C)(C)CCCCCCCCCCCCCCCCCC [I, N-n-Octadecyl-N,N-Dimethylamine Borane]
[1]
  effect on fatty acid synthetase activity: unaffected
[2]; hyperlipidemic induced mice (elevated to 375 mg %, control 128 mg %)
  serum cholesterol level after treatment: 180 mg %
[2]; hyperlipidemic induced mice
  reduction of serum cholesterol level: 52%
[2]; hyperlipidemic mice (elevated to 367 mg/dl, normal 137 mg/dl)
  serum triglyceride level after treatment: 187 mg %
[2]; hyperlipidemic mice
  reduction of serum triglyceride level: 49%
[3]; [15]
  reduction of serum cholesterol levels: 41%
  reduction of serum triglyceride levels: 59%
[3]; 216 h, day 9, read-out: Serum Cholesterol Day 9
  response vs control in vivo at 20 mg/kg: 82%
[3]; 384 h, day 16, read-out: Serum Cholesterol Day 16
  response vs control in vivo at 20 mg/kg: 79%
[3]; 384 h, day 16, read-out: Serum Triglyceride Day 16
  response vs control in vivo at 20 mg/kg: 77%
[3]; 2 mg/kg/day i.p.
  Serum Cholesterol Day 9 (X ± SD): 71 ± 6% of Control
  Serum Cholesterol Day 16 (X ± SD): 61 ± 7% of Control
  Serum Triglyceride Day 16 (X ± SD): 45 ± 4% of Control
[3]; 4 mg/kg/day i.p.
  Serum Cholesterol Day 9 (X ± SD): 69 ± 5% of Control
  Serum Cholesterol Day 16 (X ± SD): 59 ± 5% of Control
  Serum Triglyceride Day 16 (X ± SD): 49 ± 5% of Control
[3]; 8 mg/kg/day i.p.
  Serum Cholesterol Day 9 (X ± SD): 79 ± 7% of Control
  Serum Cholesterol Day 16 (X ± SD): 59 ± 4% of Control
  Serum Triglyceride Day 9 (X ± SD): 87 ± 7% of Control
  Serum Triglyceride Day 16 (X ± SD): 41 ± 3% of Control
[3]; 12 mg/kg/day i.p.
  Serum Cholesterol Day 9 (X ± SD): 62 ± 6% of Control
  Serum Cholesterol Day 16 (X ± SD): 61 ± 5% of Control
  Serum Triglyceride Day 9 (X ± SD): 58 ± 6% of Control
  Serum Triglyceride Day 16 (X ± SD): 56 ± 7% of Control
[3]; 16 mg/kg/day i.p.
  Serum Cholesterol Day 9 (X ± SD): 60 ± 5% of Control
  Serum Cholesterol Day 16 (X ± SD): 61 ± 6% of Control
  Serum Triglyceride Day 9 (X ± SD): 73 ± 8% of Control
  Serum Triglyceride Day 16 (X ± SD): 63 ± 8% of Control
[3]; 20 mg/kg/day i.p.
  Serum Cholesterol Day 9 (X ± SD): 82 ± 7% of Control
  Serum Cholesterol Day 16 (X ± SD): 79 ± 7% of Control
  Serum Triglyceride Day 16 (X ± SD): 77 ± 7% of Control
[3]; 40 mg/kg/day i.p.
  Serum Cholesterol Day 9 (X ± SD): 83 ± 6% of Control
  Serum Cholesterol Day 16 (X ± SD): 79 ± 8% of Control
  Serum Triglyceride Day 16 (X ± SD): 93 ± 6% of Control
[3]; 60 mg/kg/day i.p.
  Serum Cholesterol Day 9 (X ± SD): 81 ± 6% of Control
  Serum Cholesterol Day 16 (X ± SD): 82 ± 6% of Control
  Serum Triglyceride Day 16 (X ± SD): 113 ± 4% of Control
[3]; in mice
  optimum dosage: about 8 mg./kg./day
[4]
  effect on Actyl CoA carboxylase activity: unaffected
[5]
  effect on sn-glycerol-3 phosphate acyl transferase activity: unaffected
[6]
  reduction of liver mitochondrial citrate exchange: more than 50%
[7]
  reduction of ATP dependent citrate lyase activity: 62%
[8]
  reduction in phosphatidate phosphohydrolase activity: 67%
[9]
  reduction of acetyl CoA synthetase: 32%
[10]
  reduction of phosphatidate phosphohydrolase activity: 40%
[11]
  reduction of sn-glycerol-3-phosphate acyl transferase activity: 33%
[12]
  effect on cholesterol 7α hydrolase activity: unaffected
[13]
  Serum Triglyceride Day 9 (X ± SD): 80 ± 9% of Control
[14]
  reduction of ATP dependent citrate lyase activity: more than 50%

— patent US4740504A, “Antihyperlipidemic amine boranes” (United States Borax & Chemical Corp., priority 1987, dated 1988)
